Source: US20060270591A1, “Androgen receptor coregulators” (priority 2002, published 2006)

Assays:
AR [1] = test: AR transactivation reporter assay (CAT/luciferase) (Example 3); format: cell-based, human
Protocol: 21. […] Further adding GAL-DBD (lane 1 and 2) or GAL-DBD-ARA70N with wild type (lane 3 and 4) or mutant (lane 5-8) FXXLF motifs to the cells. (B) Effect of wild type and mutant FXXLF motifs ARA70N on AR transactivation in COS-1 cells. […] 0.5 ng SV40-Renila Luciferase was used as an internal control. Relative luciferase activity was calculated by dual luciferase system.
411. Human prostate cancer DU145 and PC-3 cells were maintained in Dulbecco's Minimum Essential Medium (DMEM) containing penicillin (25 U/ml), streptomycin (25 μg/ml), and 5% fetal calf serum (FCS). Human LNCaP cells were maintained in RPMI containing penicillin (25 U/ml), streptomycin (25 μg/ml), and 10% FCS. Transfections were performed using the calcium phosphate precipitation method, as previously described (Dynlacht et al. (1991) Cell 66, 563-576). Briefly, 4×10^5 cells were plated on 60-mm dishes 24 hours before transfection, and the medium was changed to DMEM with 5% charcoal-dextran stripped FCS (CS-FBS) one hour before transfection. Transfection medium contained a constant amount of reporter plasmid and indicated amounts of pSG5-receptor, ARA70, or pCMX-GAL fusion construct using pSG5 as a carrier to provide equal amounts of transfected DNA. […] After another 24 hours, the cells were harvested for chloramphenicol transferase (CAT) or luciferase assays. At least three independent experiments were carried out in each case. Superfect (Qiagen) was used for transfection in LNCaP cells. The transfection conditions followed the manufacturer's protocol. Cell extracts were prepared and assayed for CAT or luciferase activity (Promega) and normalized against β-galactosidase or Renilla luciferase activity as indicated. All data were the mean±SD results from three to six independent experiments.
Target sequence in this assay (P10275 whole entry): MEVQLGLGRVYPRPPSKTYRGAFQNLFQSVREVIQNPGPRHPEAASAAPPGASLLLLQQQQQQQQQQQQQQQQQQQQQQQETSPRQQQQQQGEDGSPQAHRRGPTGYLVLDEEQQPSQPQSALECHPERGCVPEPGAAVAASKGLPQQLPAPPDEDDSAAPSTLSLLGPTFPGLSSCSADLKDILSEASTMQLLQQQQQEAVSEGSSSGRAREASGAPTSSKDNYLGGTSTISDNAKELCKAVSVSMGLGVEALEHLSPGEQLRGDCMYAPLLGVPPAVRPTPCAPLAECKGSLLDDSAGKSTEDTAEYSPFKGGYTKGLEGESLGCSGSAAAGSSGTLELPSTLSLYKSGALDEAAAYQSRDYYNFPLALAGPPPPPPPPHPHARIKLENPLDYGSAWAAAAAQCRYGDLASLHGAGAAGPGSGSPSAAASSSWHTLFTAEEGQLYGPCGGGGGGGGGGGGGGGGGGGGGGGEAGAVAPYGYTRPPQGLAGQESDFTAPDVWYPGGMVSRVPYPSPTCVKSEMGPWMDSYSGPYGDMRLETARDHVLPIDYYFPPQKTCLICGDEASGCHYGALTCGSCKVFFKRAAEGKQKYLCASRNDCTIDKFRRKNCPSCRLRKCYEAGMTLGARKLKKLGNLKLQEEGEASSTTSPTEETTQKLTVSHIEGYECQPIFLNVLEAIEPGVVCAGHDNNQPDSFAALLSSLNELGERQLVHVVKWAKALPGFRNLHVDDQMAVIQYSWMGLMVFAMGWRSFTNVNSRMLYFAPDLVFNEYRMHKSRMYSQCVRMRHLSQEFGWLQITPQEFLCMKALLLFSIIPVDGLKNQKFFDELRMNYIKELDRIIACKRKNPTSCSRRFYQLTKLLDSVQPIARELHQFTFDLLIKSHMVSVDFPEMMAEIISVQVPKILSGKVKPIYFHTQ

PPAR-γ = target: T1, PPAR-γ (Homo sapiens, UniProt P37231); test: PPAR-γ transactivation reporter assay (PPRE-Luc) with SV; format: cell-based
T1 sequence (P37231 1-505): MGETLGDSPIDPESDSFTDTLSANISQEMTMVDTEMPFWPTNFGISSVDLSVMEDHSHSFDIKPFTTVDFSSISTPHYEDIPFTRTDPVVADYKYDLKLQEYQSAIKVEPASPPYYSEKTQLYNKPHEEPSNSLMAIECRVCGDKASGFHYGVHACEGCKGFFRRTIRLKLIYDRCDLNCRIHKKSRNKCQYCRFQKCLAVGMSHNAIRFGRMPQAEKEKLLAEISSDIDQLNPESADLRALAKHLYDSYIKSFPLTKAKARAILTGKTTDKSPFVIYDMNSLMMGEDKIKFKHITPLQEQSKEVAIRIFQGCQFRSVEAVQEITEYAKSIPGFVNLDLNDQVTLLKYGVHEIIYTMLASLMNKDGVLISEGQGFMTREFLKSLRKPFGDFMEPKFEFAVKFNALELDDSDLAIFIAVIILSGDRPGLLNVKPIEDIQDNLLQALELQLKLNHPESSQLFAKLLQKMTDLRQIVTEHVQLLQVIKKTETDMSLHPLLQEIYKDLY
Protocol: 42. […] (A) The interaction of SV with AR, GR, PPAR-γ and ER-α is tested in mammalian two-hybrid assay. One μg plasmids expressing Gal4(DBD)-AR, GR, PPAR-γ or ER-α was co-transfected with 4 μg plasmids expressing VP16 or VP16-SVn to COS-1 cells. […] The assay method was the same as described in FIG. 29. Relative activities of ligand treatment to EtOH treatment are shown. (B) The coactivation function of SV in different receptors was assayed using reporter gene study. MMTV-Luc, PPRE-Luc, ERE-Luc are the reporter genes for AR, GR, PPAR-γ, and ER-α respectively. Lanes 1, 5, 9 and 13 are regarded as 1 fold in each panel.
(§1) 475. In AR transactivation activity assays, transfections were performed using SuperFect (Qiagen, Chatsworth, Calif.) following protocols described in manual provided by Qiagen. Briefly, cells were plated on 35 mm dishes and after 24 h were transfected using the SuperFect kit. The total DNA amount was adjusted to 2 μg with pSG5 or pEGFP vectors. The medium was changed to DMEM with 10% CD-FBS 2 h after transfection. After 24 h, the DMEM with 10% CD-FBS was changed again, and the cells were treated with various steroids. Cells were harvested after 24 h for dual-luciferase assay as described in protocol provided by Promega. At least three independent experiments were carried out in each case.

AR [2] = test: AR transactivation dual-luciferase assay with supervillin (Example 6); format: cell-based, human
Protocol: as §1, with “In” for “475. In”
Target sequence in this assay (P10275 with tags, fused parts or gaps DEL79-80/DUP473-473): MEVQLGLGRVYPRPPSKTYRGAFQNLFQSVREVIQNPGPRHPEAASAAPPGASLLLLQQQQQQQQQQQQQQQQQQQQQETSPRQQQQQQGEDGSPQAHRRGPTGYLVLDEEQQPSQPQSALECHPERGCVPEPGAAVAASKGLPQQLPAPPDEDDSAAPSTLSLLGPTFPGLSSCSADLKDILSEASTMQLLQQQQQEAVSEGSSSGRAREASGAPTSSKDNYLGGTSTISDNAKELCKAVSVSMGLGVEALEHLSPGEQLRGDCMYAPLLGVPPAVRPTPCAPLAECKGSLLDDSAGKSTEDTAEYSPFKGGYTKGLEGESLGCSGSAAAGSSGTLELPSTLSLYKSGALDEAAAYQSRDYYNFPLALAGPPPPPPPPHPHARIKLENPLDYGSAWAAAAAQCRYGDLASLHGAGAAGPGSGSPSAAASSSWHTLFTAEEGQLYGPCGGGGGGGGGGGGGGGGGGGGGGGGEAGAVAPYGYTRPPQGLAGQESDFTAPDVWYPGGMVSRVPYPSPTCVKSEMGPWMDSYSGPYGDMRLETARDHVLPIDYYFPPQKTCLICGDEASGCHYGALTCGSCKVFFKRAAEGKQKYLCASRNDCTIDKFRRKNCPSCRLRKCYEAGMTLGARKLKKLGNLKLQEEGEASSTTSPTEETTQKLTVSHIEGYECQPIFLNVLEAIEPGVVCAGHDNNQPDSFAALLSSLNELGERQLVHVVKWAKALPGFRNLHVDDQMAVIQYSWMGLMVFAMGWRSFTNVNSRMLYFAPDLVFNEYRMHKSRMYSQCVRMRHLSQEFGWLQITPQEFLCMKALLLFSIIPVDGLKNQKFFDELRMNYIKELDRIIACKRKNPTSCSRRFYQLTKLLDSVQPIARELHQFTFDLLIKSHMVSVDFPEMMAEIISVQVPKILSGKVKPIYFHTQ

Row | enhancement of AR transactivation (AR [1]; COS-1 cells) [fold] | enhancement of AR transactivation (AR [1]; CV-1 cells) [fold] | enhancement of AR transactivation (AR [1]; DU145 cells, depending on the ratio of AR to ARA70) | enhancement of AR transactivation (AR [1]; PC-3 cells) [fold] | effect on the transactivation of PPAR-γ (PPAR-γ) | enhancement of AR transactivation (AR [2]; C2C12 muscle cells, bSV:AR plasmids 25:1 and 50:1, DHT) | AR transactivation with EGFP-bSV construct (AR [2]; COS-1 cells, 10 nM DHT, MMTV-Luc) [fold] | effect on Adiol induced AR transactivation (AR [2]; COS-1 cells, 10 nM steroid) | effect on E2- or HF-induced AR transactivation (AR [2]; COS-1 cells, 10 nM steroid) | effect on T and DHT induced AR transactivation (AR [2]; COS-1 cells, 10 nM steroid) | Substance
1 | 8 | 8 | 8-10 fold | 6 |  |  |  |  |  |  | ARA70: ligand-enhanced AR coregulator, full length ARA70
2 |  |  |  |  | little effect | 3-8 fold | 132 | slightly enhances | marginal effect | significantly enhances | SV: supervillin, 205 kDa actin binding protein; bovine SV (a.a. 1-1792) used in reporter assays
